Tested on: KIAA0101 expression in LNCaP cells
Test: Expression of KIAA0101 in LNCaP prostate cancer cells treated with casodex
Type: cell-based, human
Description: In order to examine the effect of casodex, an anti-androgen, on the expression of KIAA0101, LNCaP cells (androgen-sensitive prostate cancer cells) were grown to 70% confluence in RPMI-1640 (10% FBS). The cultures were then pretreated for 24 hours in dye-free RPMI-1640 containing 5% charcoal stripped serum. The cultures were then treated with either 1 nM R1881 or 100 […] casodex in RPMI-1640 containing 5% charcoal stripped serum prior to harvesting and extraction of total mRNA for expression analysis.

In the case of `CC(O)(CS(=O)(=O)c1ccc(F)cc1)C(=O)Nc1ccc(C#N)c(C(F)(F)F)c1` (centres unmarked) [casodex], the “decrease (drop) in KIAA0101 expression” value (LNCaP cells (androgen-responsive prostate cancer cell line), in the presence of casodex) is reported as 3 fold and the “KIAA0101 expression lower in the presence of casodex than in the presence of R1881” value (LNCaP cells, casodex versus R1881 (androgen agonist, 1 nM)) is reported as 3 fold.
